These results are taken from ChEMBL document CHEMBL1909046, “DrugMatrix in vitro pharmacology data”.

Assay [1] in a line: DRUGMATRIX: Calcium Channel Type L, Dihydropyridine radioligand binding (ligand: [3H] Nitrendipine). Format: cell membranes, Rattus norvegicus, Wistar, Cerebral cortex, Membrane. Particulars: Not Active = under 50% inhibition at 10 µM.
The target of the next assay is Histamine H2 receptor (Homo sapiens, UniProt P25021). Format: cell membranes, CHO-K1, Membrane. Particulars: cho-k1. Also: in other assays of this panel Not Active means under 50% inhibition at 10 µM.
Histamine H2 receptor, sequence (P25021 whole entry): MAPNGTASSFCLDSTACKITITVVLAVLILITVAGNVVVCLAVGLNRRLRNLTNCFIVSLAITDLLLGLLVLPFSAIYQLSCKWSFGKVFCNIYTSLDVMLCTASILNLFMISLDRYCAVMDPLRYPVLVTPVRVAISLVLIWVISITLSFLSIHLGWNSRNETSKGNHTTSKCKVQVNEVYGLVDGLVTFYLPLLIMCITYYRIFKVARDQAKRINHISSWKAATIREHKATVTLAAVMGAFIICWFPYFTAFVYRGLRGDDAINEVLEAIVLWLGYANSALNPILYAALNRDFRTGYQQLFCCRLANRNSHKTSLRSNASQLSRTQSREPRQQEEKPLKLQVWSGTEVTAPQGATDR
A short description of assay [2]: DRUGMATRIX: Imidazoline I2, Central radioligand binding (ligand: [3H] Idazoxan). Particulars: Not Active = under 50% inhibition at 10 µM. It is filed as cell membranes, Rattus norvegicus, Wistar, Cerebral cortex, Membrane.
The target in assay [3] is cGMP-specific 3',5'-cyclic phosphodiesterase (Homo sapiens, UniProt O76074). The assay is described as follows: DRUGMATRIX: Phosphodiesterase PDE5 enzyme inhibition (substrate: [3H]cGMP + cGMP). Particulars: Not Active = under 50% inhibition at 10 µM. It is filed as tissue-based, Platelet.
Assay [4] has as its target Mitogen-activated protein kinase 3 (Homo sapiens, UniProt P27361). The assay is described as follows: DRUGMATRIX: Protein Serine/Threonine Kinase, ERK1 enzyme inhibition (substrate: Myelin Basic Protein). Particulars: Not Active = under 50% inhibition at 10 µM. Further details: species or system Escherichia coli.
Assay [5] addresses Delta-type opioid receptor (Homo sapiens, UniProt P41143). It is filed as cell membranes, Membrane. Particulars: hek293.
A further assay concerns the target Carbonic anhydrase 2 (Homo sapiens, UniProt P00918). The assay is described as follows: DRUGMATRIX: Carbonic Anhydrase II enzyme inhibition (substrate: 4-Nitrophenyl acetate (4-NPA)). It is filed as tissue-based. Particulars: erythrocyte; Not Active = under 50% inhibition at 10 µM.

Mitogen-activated protein kinase 3, sequence (P27361 whole entry): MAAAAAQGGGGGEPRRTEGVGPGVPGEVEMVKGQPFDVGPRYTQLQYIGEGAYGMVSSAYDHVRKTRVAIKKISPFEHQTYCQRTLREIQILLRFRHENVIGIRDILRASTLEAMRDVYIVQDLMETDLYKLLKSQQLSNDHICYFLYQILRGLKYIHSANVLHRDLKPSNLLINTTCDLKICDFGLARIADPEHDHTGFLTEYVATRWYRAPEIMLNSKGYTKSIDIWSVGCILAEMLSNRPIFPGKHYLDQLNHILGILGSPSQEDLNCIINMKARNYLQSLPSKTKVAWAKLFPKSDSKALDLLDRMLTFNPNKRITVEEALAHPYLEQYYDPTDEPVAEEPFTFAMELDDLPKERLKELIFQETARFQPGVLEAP
Delta-type opioid receptor, sequence (P41143 whole entry): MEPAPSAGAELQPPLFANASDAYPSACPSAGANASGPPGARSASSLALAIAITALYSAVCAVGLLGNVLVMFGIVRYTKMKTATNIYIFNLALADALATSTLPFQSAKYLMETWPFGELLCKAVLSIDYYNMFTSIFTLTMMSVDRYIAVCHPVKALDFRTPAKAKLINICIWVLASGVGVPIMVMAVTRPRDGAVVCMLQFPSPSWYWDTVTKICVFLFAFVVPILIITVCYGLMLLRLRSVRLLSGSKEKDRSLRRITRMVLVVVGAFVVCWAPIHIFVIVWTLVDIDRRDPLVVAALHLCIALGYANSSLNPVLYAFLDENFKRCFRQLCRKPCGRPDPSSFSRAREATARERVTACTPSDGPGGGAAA

Turning to `CCC1(C)CC(=O)NC1=O` (stereo not drawn) [ETHOSUXIMIDE], the IC50 result (in assay [1]; against Histamine H2 receptor; in assay [2]; in assay [3] (platelet); in assay [4]; in assay [5]) was “Not Active” throughout. Moreover, the half-inhibitory concentration (IC50) entry against Carbonic anhydrase 2 is recorded as “Not Active”. Also, the Ki result in assay [1] and in assay [2] was “Not Active” in each case.

`Brc1c(NC2=NCCN2)ccc2nccnc12` [BRIMONIDINE]: the IC50 entry in assay [1] is “Not Active”; against Histamine H2 receptor it was “Not Active”; in assay [2] (read-out: IC50), 74 nM; in assay [3] (platelet) it was “Not Active”; in assay [4], “Not Active”; in assay [5], “Not Active”. Besides, the IC50 entry against Carbonic anhydrase 2 is “Not Active”. Further, the Ki entry in assay [1] was “Not Active”; in assay [2] (read-out: Ki), 49 nM.

For `CC[C@H]1CN2CCc3cc(OC)c(OC)cc3[C@@H]2C[C@@H]1C[C@H]1NCCc2cc(OC)c(OC)cc21` [EMETINE], the IC50 entry (in assay [1]; against Histamine H2 receptor; in assay [2]; in assay [3] (platelet); in assay [4]; in assay [5]) was “Not Active” each time. Moreover, on Carbonic anhydrase 2, the IC50 result is on record as “Not Active”. Besides, the Ki result in assay [1] and in assay [2] was “Not Active” in each case.

Turning to `COc1cc([C@@H]2c3cc4c(cc3[C@@H](O[C@@H]3O[C@@H]5CO[C@@H](C)O[C@H]5[C@H](O)[C@H]3O)[C@H]3COC(=O)[C@H]23)OCO4)cc(OC)c1O` [ETOPOSIDE], the IC50 entry (in assay [1]; against Histamine H2 receptor; in assay [2]; in assay [3] (platelet); in assay [4]; in assay [5]) was “Not Active” in each case. Besides, the IC50 result at Carbonic anhydrase 2 is reported as “Not Active”. Moreover, the Ki result in assay [1] and in assay [2] was “Not Active” throughout.

Turning to `COC(=O)CCc1ccc(OCC(O)CNC(C)C)cc1` (stereo not drawn) [ESMOLOL], the 50% inhibitory concentration (IC50) entry (in assay [1]; at Histamine H2 receptor; in assay [2]; in assay [3] (platelet); in assay [4]; in assay [5]) was “Not Active” each time. Also, at Carbonic anhydrase 2, the IC50 result is “Not Active”. For the same compound, the Ki result in assay [1] and in assay [2] was “Not Active” in each case.

`COc1ccc(C(=O)N2CCCC2=O)cc1`: the IC50 result (in assay [1]; against Histamine H2 receptor; in assay [2]; in assay [3] (platelet); in assay [4]; in assay [5]) was “Not Active” in each case. In addition, at Carbonic anhydrase 2, the IC50 entry is listed as “Not Active”. Besides, the Ki result in assay [1] and in assay [2] was “Not Active” in each case.

On to `O=C(O)CCNC(=O)c1ccccc1` [BETAMIPRON], for which the IC50 entry (in assay [1]; on Histamine H2 receptor; in assay [2]; in assay [3] (platelet); in assay [4]; in assay [5]) was “Not Active” in each case. The IC50 entry at Carbonic anhydrase 2 is recorded as “Not Active”. In addition, the inhibitory constant (Ki) result in assay [1] and in assay [2] was “Not Active” throughout.

For the compound `O=c1cnn([C@@H]2O[C@H](CO)[C@@H](O)[C@H]2O)c(=O)[nH]1` [6-AZAURIDINE], the IC50 result (in assay [1]; against Histamine H2 receptor; in assay [2]; in assay [3] (platelet); in assay [4]; in assay [5]) was “Not Active” in each case. Further, the IC50 entry against Carbonic anhydrase 2 is given as “Not Active”. Further, the Ki result in assay [1] and in assay [2] was “Not Active” each time.

In the case of `Cc1c(OCC(F)(F)F)ccnc1C[S+]([O-])c1nc2ccccc2[nH]1` (stereo not drawn) [LANSOPRAZOLE], the IC50 result (in assay [1]; against Histamine H2 receptor; in assay [2]; in assay [3] (platelet); in assay [4]; in assay [5]) was “Not Active” each time. Also, the IC50 entry at Carbonic anhydrase 2 is on record as “Not Active”. For the same compound, the Ki result in assay [1] and in assay [2] was “Not Active” throughout.

For the compound `C[C@@H]1C[C@H]2[C@@H]3CCC4=CC(=O)C=C[C@]4(C)[C@@]3(F)[C@@H](O)C[C@]2(C)[C@H]1C(=O)CO` [DESOXIMETASONE], the IC50 result (in assay [1]; at Histamine H2 receptor; in assay [2]; in assay [3] (platelet); in assay [4]; in assay [5]) was “Not Active” throughout. The IC50 result against Carbonic anhydrase 2 is on record as “Not Active”. The Ki entry in assay [1] and in assay [2] was “Not Active” each time.

On to `O=C(c1ccccc1C(F)(F)F)N1CCC(Cc2ccccc2)CC1`, for which the IC50 entry (in assay [1]; on Histamine H2 receptor; in assay [2]; in assay [3] (platelet); in assay [4]; in assay [5]) was “Not Active” each time. Moreover, at Carbonic anhydrase 2, the IC50 entry was “Not Active”. Moreover, the Ki result in assay [1] and in assay [2] was “Not Active” in each case.

In the case of `O=c1cc(N2CCOCC2)oc2c(-c3ccccc3)cccc12` [LY-294002], the IC50 result in assay [1] is “Not Active”; against Histamine H2 receptor it was “Not Active”; in assay [2], “Not Active”; in assay [3] (read-out: IC50) it was 9610 nM; in assay [4] it was “Not Active”; in assay [5], “Not Active”. In addition, the IC50 entry at Carbonic anhydrase 2 is listed as “Not Active”. In addition, the Ki result in assay [1] and in assay [2] was “Not Active” each time.

With `COc1cc(N)c(Cl)cc1C(=O)NC1CCN(CCCOc2ccc(F)cc2)CC1OC` (stereo not drawn) [CISAPRIDE], the IC50 result (in assay [1]; against Histamine H2 receptor; in assay [2]; in assay [3] (platelet); in assay [4]; in assay [5]) was “Not Active” throughout. The IC50 entry on Carbonic anhydrase 2 is listed as “Not Active”. In addition, the Ki result in assay [1] and in assay [2] was “Not Active” each time.

Regarding `N=C(N)NC(=O)Cc1c(Cl)cccc1Cl` [GUANFACINE], the IC50 entry was “Not Active” in assay [1]; “Not Active” against Histamine H2 receptor; 45 nM in assay [2] (read-out: IC50); “Not Active” in assay [3] (platelet); “Not Active” in assay [4]; “Not Active” in assay [5]. Besides, the IC50 result against Carbonic anhydrase 2 is “Not Active”. For the same compound, the results for the Ki result in assay [1] and in assay [2] (read-out: Ki) were “Not Active” and 30 nM, respectively.

Regarding `NC(=O)C[S+]([O-])C(c1ccccc1)c1ccccc1` (stereo not drawn) [MODAFINIL], the IC50 result (in assay [1]; against Histamine H2 receptor; in assay [2]; in assay [3] (platelet); in assay [4]; in assay [5]) was “Not Active” in each case. Besides, the IC50 entry against Carbonic anhydrase 2 is recorded as “Not Active”. In addition, the Ki result in assay [1] and in assay [2] was “Not Active” in each case.

Turning to `CC(C)(C)NC(=O)[C@H]1CC[C@H]2[C@@H]3CC[C@H]4NC(=O)C=C[C@]4(C)[C@H]3CC[C@]12C` [FINASTERIDE], the concentration for half-maximal inhibition (IC50) result (in assay [1]; against Histamine H2 receptor; in assay [2]; in assay [3] (platelet); in assay [4]; in assay [5]) was “Not Active” in each case. In addition, the IC50 entry against Carbonic anhydrase 2 was “Not Active”. Moreover, the Ki entry in assay [1] and in assay [2] was “Not Active” in each case.

As to `CC(C)NNC(=O)c1ccncc1` [IPRONIAZID], the IC50 result (in assay [1]; at Histamine H2 receptor; in assay [2]; in assay [3] (platelet); in assay [4]; in assay [5]) was “Not Active” each time. Further, the IC50 entry at Carbonic anhydrase 2 is recorded as “Not Active”. Moreover, the Ki entry in assay [1] and in assay [2] was “Not Active” each time.

The term IC50 denotes the concentration that gives 50% inhibition. As usually defined, the Ki is the equilibrium dissociation constant of an inhibitor or competing ligand from its target.
